Laboratory results reported in ChEMBL document CHEMBL1201862, “PubChem BioAssay data set” (2004).
The source made the active and inactive calls.

Key:
[1] = molecular target: T1, Replicative DNA helicase DnaB (Mycobacterium tuberculosis, UniProt P9WMR3); experiment: DnaB intein splicing inhibitors, dose response, biochemical, cell-free fluorescence (AID 449749); assay type: functional
T1 sequence (P9WMR3 whole entry): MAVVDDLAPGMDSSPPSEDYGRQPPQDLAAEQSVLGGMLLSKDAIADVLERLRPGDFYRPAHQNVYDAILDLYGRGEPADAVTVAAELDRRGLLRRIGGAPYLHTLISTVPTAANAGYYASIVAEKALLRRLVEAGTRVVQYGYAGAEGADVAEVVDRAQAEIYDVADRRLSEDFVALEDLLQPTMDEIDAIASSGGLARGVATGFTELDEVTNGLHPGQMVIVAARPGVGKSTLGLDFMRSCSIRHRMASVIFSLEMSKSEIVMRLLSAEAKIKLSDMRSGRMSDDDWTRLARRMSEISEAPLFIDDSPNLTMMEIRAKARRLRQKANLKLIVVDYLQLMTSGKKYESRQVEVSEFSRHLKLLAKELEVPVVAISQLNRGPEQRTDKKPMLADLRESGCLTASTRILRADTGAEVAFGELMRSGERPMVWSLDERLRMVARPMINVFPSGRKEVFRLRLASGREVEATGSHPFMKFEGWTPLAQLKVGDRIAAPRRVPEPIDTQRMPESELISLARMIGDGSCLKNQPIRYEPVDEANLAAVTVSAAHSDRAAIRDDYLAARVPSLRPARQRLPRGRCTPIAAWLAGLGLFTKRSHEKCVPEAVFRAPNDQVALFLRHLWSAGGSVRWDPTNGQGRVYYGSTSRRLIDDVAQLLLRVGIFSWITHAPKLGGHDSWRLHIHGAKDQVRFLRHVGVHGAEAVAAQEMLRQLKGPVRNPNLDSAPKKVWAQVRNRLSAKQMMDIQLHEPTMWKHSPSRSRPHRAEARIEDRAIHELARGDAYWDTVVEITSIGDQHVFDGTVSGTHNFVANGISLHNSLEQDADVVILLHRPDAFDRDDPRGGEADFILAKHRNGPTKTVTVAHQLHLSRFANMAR

[2] = molecular target: T2, Protein RecA (Mycobacterium tuberculosis, UniProt P9WHJ3); experiment: Fluorescence Cell-Free Homogeneous Dose Retest to Identify Inhibitors of RecA-Intein Splicing Activity. [Related pubchem assays (depositor defined):AID2097, AID2223, AID489010, AID492950]; assay type: functional
T2 sequence (P9WHJ3 whole entry): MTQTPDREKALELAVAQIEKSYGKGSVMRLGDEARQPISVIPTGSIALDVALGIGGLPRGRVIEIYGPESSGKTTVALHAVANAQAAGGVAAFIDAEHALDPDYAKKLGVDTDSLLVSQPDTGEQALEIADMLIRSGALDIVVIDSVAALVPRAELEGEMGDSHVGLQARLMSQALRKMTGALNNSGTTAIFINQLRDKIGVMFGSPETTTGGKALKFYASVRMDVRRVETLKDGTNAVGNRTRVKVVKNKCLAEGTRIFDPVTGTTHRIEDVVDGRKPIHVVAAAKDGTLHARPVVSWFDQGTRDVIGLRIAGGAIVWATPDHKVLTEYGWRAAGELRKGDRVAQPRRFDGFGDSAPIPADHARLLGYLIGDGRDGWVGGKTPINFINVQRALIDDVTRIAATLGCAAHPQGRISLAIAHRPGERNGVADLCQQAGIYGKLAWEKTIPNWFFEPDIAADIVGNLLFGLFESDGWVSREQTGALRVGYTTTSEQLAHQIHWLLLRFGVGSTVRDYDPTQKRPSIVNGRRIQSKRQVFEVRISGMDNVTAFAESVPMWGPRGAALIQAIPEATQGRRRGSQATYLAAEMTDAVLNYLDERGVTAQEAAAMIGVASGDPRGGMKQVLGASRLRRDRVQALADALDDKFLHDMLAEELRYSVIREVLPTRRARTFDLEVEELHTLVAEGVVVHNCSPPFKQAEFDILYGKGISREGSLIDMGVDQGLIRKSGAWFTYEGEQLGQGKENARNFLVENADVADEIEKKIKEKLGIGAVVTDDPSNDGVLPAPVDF

[3] = molecular target: Mitochondrial peptide methionine sulfoxide reductase (Bos taurus, UniProt P54149); experiment: Absorbance-based biochemical high throughput dose response assay for activators of Methionine sulfoxide reductase A (MsrA).; assay type: functional
[4] = molecular target: T3, Microphthalmia-associated transcription factor (Homo sapiens, UniProt O75030); experiment: TRPM1 promoter luciferase signal decrease, dose response, MITF inhibitor project, cell-based, SK-MEL-5, cherry-picked, set 3 (AID 493073); assay type: functional
T3 sequence (O75030 whole entry): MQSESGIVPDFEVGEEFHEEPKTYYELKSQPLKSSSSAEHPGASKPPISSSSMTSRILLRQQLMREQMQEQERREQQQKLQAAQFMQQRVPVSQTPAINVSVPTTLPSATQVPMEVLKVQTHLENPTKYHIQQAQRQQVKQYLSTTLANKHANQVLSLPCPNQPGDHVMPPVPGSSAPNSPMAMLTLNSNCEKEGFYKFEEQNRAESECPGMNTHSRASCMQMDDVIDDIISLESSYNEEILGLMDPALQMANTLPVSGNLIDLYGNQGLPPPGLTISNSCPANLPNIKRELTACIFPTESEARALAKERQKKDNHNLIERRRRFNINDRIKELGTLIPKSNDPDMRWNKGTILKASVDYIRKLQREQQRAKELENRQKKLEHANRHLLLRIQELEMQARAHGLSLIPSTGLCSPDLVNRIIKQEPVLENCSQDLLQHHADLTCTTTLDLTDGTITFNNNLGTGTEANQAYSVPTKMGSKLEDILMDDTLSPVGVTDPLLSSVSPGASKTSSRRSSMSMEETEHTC

[5] = cytotoxicity in HEK-293T cells, dose response, cytotoxicity control for BCR NF-kB inhibitor project, luminescence, B-cell screen hits (AID 489021); assay type: functional, cell-based;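 also: HEK-293T cells carrying an NF-kB luciferase reporter; cells exposed to compound for about 14 hours before viability readout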
[6] = Shn3 3'UTR reporter inhibitors, dose response, cell-based, Clone20 osteoblasts, firefly luciferase, cherry-picked (AID 624132); assay type: functional;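 also: firefly luciferase luminescence from reporter carrying the Shn3 3'UTR in osteoblasts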
[7] = HepG2 cell cytotoxicity, dose response, cytotoxicity control for Shn3 inhibitor project, CellTiter-Glo, cherry-picked (AID 624134); assay type: functional, cell-based
[8] = control 3'UTR Renilla luciferase suppression, dose response, counter-screen for Shn3 inhibitor project, cell-based, Clone20-Shn3RL, cherry-picked (AID 624133); assay type: functional
[9] = molecular target: T4, Interleukin-8 (Homo sapiens, UniProt P10145); experiment: Dose Response confirmation of uHTS small molecule hits for cystic fibrosis induced NFkb Inhibitors in a TNFa-induced IL8 counterscreen.; assay type: functional; conditions: read-out: IC50_Mean
[10] = molecular target: T4, Interleukin-8; experiment: Dose Response confirmation of uHTS small molecule hits for cystic fibrosis induced NFkb Inhibitors in a PAF-induced IL8 counterscreen.; assay type: functional; conditions: read-out: IC50_Mean
[11] = molecular target: Platelet-activating factor acetylhydrolase (Homo sapiens, UniProt Q13093); experiment: Late stage assay provider results from the probe development effort to identify inhibitors of plasma platelet activating factor acetylhydrolase (pPAFAH): fluorescence-based dose response biochemical gel-based competitive Activity-Based Protein Profiling (ABPP) inhibition of human pPAFAH.; assay type: functional, cell-free
[12] = molecular target: Platelet-activating factor acetylhydrolase (Mus musculus, UniProt Q60963); experiment: Late stage assay provider results from the probe development effort to identify inhibitors of pPAFAH: fluorescence-based dose-response biochemical gel-based competitive Activity-Based Protein Profiling (ABPP) assay for SAR compounds.; assay type: functional
[13] = molecular target: Disintegrin and metalloproteinase domain-containing protein 17 (Homo sapiens, UniProt P78536); experiment: exosite inhibitors of ADAM17, dose response, biochemical (AID 743260)
[14] = ADAM10 protease inhibitors, dose response, selectivity assay for ADAM17 exosite inhibitor project, biochemical, FRET peptide substrate, recombinant human ADAM10 (AID 743259);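 also: ADAM10 enzyme cleaving a FRET peptide substrate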
[15] = molecular target: T5, Hexokinase HKDC1 (Homo sapiens, UniProt Q2TB90); experiment: HKDC1 hexokinase inhibitors, dose response, biochemical, W721R variant (AID 504729); assay type: functional
T5 sequence (Q2TB90 whole entry): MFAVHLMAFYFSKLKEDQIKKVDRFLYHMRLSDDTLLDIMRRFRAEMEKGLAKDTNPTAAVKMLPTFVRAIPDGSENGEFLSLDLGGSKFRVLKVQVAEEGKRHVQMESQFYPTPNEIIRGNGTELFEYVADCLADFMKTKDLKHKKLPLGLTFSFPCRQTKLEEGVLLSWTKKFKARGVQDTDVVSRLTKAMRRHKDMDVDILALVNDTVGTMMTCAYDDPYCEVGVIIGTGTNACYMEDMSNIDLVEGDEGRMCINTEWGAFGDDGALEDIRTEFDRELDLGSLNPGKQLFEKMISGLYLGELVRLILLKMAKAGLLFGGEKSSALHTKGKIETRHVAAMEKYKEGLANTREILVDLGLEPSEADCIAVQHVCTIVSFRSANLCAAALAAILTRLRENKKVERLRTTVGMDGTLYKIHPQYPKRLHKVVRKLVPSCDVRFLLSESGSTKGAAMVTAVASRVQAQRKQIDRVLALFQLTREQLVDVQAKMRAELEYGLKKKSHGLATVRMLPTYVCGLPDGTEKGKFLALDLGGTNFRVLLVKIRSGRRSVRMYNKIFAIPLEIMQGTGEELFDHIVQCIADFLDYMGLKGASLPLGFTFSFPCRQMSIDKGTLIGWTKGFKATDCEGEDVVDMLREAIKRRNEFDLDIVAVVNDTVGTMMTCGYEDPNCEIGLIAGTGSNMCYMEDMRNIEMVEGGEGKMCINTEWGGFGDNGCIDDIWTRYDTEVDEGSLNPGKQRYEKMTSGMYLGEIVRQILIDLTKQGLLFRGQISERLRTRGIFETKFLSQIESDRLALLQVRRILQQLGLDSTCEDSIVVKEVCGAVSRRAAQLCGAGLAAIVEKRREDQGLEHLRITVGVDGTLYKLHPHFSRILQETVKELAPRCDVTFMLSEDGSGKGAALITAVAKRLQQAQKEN

[16] = AlphaScreen signal interference compounds, dose response, artefact control for ARNT-TACC3 interaction inhibitor project, biochemical, luminescence, cherry-pick (AID 651705); assay type: functional;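 also: AlphaScreen bead proximity signal that flags compounds interfering with the detection technology; potency reflects signal decrease which marks the compound as an assay artifact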
[17] = molecular target: Histone-lysine N-methyltransferase NSD2 (Homo sapiens, UniProt O96028); assay type: biochemical
Histone-lysine N-methyltransferase NSD2, sequence (O96028 whole entry): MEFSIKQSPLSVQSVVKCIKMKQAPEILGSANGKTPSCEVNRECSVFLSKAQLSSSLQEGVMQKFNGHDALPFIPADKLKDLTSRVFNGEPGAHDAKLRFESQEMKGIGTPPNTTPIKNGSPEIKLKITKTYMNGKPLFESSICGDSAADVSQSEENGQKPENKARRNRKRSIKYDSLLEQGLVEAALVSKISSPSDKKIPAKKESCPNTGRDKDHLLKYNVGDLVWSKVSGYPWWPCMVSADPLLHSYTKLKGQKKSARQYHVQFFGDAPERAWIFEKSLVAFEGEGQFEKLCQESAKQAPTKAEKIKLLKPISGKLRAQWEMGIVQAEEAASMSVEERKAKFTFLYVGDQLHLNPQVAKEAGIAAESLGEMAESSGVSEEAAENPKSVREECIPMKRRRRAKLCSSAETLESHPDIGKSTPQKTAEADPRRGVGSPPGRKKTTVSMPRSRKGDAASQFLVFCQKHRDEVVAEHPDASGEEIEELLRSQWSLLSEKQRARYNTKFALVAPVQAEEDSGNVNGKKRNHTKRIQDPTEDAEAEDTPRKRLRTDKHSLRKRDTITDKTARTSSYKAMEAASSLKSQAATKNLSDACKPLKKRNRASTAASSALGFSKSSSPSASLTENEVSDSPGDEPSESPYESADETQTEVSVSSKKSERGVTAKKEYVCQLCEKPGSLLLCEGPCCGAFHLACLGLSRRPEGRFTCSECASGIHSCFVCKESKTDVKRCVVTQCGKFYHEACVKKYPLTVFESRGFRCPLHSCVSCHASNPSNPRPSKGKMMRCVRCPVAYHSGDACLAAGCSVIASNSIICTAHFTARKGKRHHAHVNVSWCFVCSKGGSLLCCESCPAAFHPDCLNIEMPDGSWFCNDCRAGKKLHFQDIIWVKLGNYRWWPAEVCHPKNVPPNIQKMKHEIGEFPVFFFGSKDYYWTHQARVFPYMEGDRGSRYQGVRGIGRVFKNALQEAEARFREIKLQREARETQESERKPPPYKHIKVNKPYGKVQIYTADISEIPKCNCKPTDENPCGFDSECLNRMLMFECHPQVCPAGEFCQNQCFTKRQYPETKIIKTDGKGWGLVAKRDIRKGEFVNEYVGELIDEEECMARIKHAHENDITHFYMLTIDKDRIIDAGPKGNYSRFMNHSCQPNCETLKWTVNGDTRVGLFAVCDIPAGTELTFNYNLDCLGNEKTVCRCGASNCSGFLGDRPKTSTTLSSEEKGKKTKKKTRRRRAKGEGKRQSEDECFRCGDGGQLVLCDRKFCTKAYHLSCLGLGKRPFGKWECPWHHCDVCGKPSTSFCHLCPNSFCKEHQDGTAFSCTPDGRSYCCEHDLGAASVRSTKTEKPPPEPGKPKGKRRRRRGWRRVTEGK

T4 sequence (P10145 whole entry): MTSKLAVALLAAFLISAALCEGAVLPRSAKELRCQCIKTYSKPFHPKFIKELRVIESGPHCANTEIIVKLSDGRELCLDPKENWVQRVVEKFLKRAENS
Platelet-activating factor acetylhydrolase (Homo sapiens, UniProt Q13093), sequence (Q13093 whole entry): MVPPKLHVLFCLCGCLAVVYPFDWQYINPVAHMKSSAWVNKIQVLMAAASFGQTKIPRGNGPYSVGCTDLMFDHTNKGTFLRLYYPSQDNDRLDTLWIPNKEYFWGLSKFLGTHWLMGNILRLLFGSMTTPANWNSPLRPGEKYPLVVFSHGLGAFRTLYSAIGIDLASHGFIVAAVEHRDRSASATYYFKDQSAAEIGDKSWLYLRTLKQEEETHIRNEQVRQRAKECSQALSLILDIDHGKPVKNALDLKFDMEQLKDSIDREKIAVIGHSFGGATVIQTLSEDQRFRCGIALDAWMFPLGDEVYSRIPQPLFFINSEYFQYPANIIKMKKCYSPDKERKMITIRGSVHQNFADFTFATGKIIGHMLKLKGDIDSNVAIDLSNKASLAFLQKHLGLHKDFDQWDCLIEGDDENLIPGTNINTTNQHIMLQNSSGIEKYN
Mitochondrial peptide methionine sulfoxide reductase, sequence (P54149 whole entry): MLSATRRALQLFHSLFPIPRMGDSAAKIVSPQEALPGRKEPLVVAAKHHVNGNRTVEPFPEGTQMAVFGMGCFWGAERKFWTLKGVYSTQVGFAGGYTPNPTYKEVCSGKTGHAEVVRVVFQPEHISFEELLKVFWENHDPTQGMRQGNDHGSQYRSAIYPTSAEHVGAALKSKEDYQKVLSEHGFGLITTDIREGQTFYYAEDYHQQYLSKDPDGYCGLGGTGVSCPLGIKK
Platelet-activating factor acetylhydrolase (Mus musculus, UniProt Q60963), sequence (Q60963 whole entry, the tested form may be a part): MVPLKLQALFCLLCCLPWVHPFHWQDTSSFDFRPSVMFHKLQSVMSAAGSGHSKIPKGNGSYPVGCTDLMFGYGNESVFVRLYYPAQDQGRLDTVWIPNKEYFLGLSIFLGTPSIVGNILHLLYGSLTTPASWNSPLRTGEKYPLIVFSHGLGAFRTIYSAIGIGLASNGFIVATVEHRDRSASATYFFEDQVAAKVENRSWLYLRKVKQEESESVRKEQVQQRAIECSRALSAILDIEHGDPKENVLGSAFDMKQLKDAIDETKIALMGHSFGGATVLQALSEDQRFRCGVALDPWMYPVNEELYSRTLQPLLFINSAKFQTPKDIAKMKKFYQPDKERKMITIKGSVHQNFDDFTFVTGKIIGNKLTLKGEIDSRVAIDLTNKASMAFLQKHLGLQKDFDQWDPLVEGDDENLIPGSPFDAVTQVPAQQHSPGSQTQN
Disintegrin and metalloproteinase domain-containing protein 17, sequence (P78536 whole entry, the tested form may be a part): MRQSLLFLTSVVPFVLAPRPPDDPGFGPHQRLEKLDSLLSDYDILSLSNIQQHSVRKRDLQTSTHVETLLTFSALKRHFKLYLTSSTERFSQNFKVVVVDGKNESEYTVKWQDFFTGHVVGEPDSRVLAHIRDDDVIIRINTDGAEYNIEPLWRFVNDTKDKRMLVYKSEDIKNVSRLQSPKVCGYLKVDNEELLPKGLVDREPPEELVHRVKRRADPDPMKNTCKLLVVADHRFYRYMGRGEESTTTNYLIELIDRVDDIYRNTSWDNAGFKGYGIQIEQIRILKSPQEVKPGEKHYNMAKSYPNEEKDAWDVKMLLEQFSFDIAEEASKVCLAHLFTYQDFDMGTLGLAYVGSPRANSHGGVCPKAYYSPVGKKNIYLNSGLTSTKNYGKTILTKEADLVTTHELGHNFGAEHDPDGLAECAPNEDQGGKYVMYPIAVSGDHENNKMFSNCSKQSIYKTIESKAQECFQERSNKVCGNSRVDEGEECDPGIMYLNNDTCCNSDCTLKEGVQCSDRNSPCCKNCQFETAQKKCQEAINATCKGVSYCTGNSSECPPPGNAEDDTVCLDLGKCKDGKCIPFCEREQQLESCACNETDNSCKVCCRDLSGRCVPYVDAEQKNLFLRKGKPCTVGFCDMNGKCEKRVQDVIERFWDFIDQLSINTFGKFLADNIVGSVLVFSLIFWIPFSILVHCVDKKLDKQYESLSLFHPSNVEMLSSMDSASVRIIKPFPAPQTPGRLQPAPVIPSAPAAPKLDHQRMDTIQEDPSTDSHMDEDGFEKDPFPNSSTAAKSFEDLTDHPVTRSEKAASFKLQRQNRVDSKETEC

For `O=C1c2ccccc2C(=O)c2cc(S(=O)(=O)Nc3ccccc3)ccc21`, the AC50 [1] was 29.8 µM (active), the EC50 [2] was 12.1 µM (active) and the EC50 [3] was > 104 µM (inactive).
For `CC(C)(C)C(=O)/C(=C/c1ccncc1)n1cncn1`, the AC50 [4] was 6.63 µM (active), the IC50 [5] was > 80 µM (inactive) and the AC50 [6] was 3.27 µM (active). For the same compound, the AC50 [7] was 16.8 µM (active), the AC50 [8] was 7.23 µM (active) and the IC50 [9] was 1.25 µM (active). The IC50 [10] was 607 nM (active).
For `Cc1cc(N2CCN(C(=O)Oc3ccc(-c4ccccc4)cn3)CC2)c2ccccc2n1`, the IC50 [11] was 6 nM (active), the IC50 [12] was 31 nM (active) and the IC50 [13] was > 69.4 µM (inactive). The IC50 [14] was > 69.4 µM (inactive).
In the case of `NC1=CC(=O)C(=O)c2ccccc21` [4-AMINO-[1,2]NAPHTHOQUINONE], the IC50 [15] is reported as 34 µM (inactive), the AC50 [16] is reported as 107 µM (active) and the AC50 [17] is reported as 1.74 µM (active).
